According to article PMC5218480 (PLoS ONE, 2017):

Tested on: MV-4-11 cells
Test: Gene expression microarray analysis (Affymetrix PrimeView) and GSEA
Format: cell-based, human
Design: RFU PODN (11730768_x_at) / Fold change /veh PODN (11730768_x_at) / RFU LINC00158 (11744669_a_at) / Fold change /veh LINC00158 (11744669_a_at) / RFU DUSP10 (11751237_a_at) / Fold change /veh DUSP10 (11751237_a_at) / RFU ID3 (11757404_x_at) / Fold change /veh ID3 (11757404_x_at) / RFU PLEKHG5 (11737974_s_at) / Fold change /veh PLEKHG5 (11737974_s_at) / RFU LRRC4B (11730491_at) / Fold change /veh LRRC4B (11730491_at) / RFU GIMAP4 (11747438_a_at) / Fold change /veh GIMAP4 (11747438_a_at) / RFU KRT8 (11758183_x_at) / Fold change /veh KRT8 (11758183_x_at) / RFU CNN1 (11734310_a_at) / Fold change /veh CNN1 (11734310_a_at) / RFU VPS37D (11726825_at) / Fold change /veh VPS37D (11726825_at) / RFU C10orf10 (11716522_x_at) / Fold change /veh C10orf10 (11716522_x_at) / RFU KIR2DL2 /// KIR2DL4 /// KIR2DL5A /// KIR2DL5B /// KIR2DS1 /// KIR2DS2 /// KIR2DS3 /// KIR2DS4 /// KIR3DL3 /// KIR3DL3 /// KIR3DS1 (11738374_at) / Fold change /veh KIR2DL2 /// KIR2DL4 /// KIR2DL5A /// KIR2DL5B /// KIR2DS1 /// KIR2DS2 /// KIR2DS3 /// KIR2DS4 /// KIR3DL3 /// KIR3DL3 /// KIR3DS1 (11738374_at) / RFU C1QL1 (11718748_at) / Fold change /veh C1QL1 (11718748_at) / RFU TMPRSS4 (11747572_a_at) / Fold change /veh TMPRSS4 (11747572_a_at) / RFU HAMP (11756126_x_at) / Fold change /veh HAMP (11756126_x_at) / RFU RNFT2 (11725882_a_at) / Fold change /veh RNFT2 (11725882_a_at) / RFU NR4A2 (11747474_a_at) / Fold change /veh NR4A2 (11747474_a_at) / RFU ABCC12 (11746883_a_at) / Fold change /veh ABCC12 (11746883_a_at) / RFU TMEM136 (11760407_x_at) / Fold change /veh TMEM136 (11760407_x_at) / RFU CLDN22 /// WWC2 (11732394_at) / Fold change /veh CLDN22 /// WWC2 (11732394_at) / RFU HLA-DPB1 (11760878_x_at) / Fold change /veh HLA-DPB1 (11760878_x_at) / RFU SPINT1 (11716480_a_at) / Fold change /veh SPINT1 (11716480_a_at) / RFU GAP43 (11754022_s_at) / Fold change /veh GAP43 (11754022_s_at) / RFU A4GNT (11735810_at) / Fold change /veh A4GNT (11735810_at) / RFU PRB3 (11715151_x_at) / Fold change /veh PRB3 (11715151_x_at) / RFU TUBB4B (11761932_at) / Fold change /veh TUBB4B (11761932_at) / RFU CAPN14 (11732068_a_at) / Fold change /veh CAPN14 (11732068_a_at) / RFU TMCC2 (11721928_a_at) / Fold change /veh TMCC2 (11721928_a_at) / RFU IRGQ (11745062_a_at) / Fold change /veh IRGQ (11745062_a_at) / RFU FAM174B (11720279_a_at) / Fold change /veh FAM174B (11720279_a_at) / RFU TMPRSS4 (11748680_a_at) / Fold change /veh TMPRSS4 (11748680_a_at) / RFU FAM212B (11763350_a_at) / Fold change /veh FAM212B (11763350_a_at) / RFU PLEKHG5 (11743358_a_at) / Fold change /veh PLEKHG5 (11743358_a_at) / RFU ZSCAN30 (11745921_a_at) / Fold change /veh ZSCAN30 (11745921_a_at) / RFU CMKLR1 (11741424_a_at) / Fold change /veh CMKLR1 (11741424_a_at) / RFU LOC101060620 /// MAPK8IP1 (11723275_at) / Fold change /veh LOC101060620 /// MAPK8IP1 (11723275_at) / RFU SPTSSB (11747773_x_at) / Fold change /veh SPTSSB (11747773_x_at) / RFU PRSS12 (11739890_at) / Fold change /veh PRSS12 (11739890_at) / RFU BIN1 (11741810_x_at) / Fold change /veh BIN1 (11741810_x_at) / RFU WNT11 (11732464_a_at) / Fold change /veh WNT11 (11732464_a_at) / RFU C10orf10 (11716521_a_at) / Fold change /veh C10orf10 (11716521_a_at) / RFU C5orf56 (11738089_at) / Fold change /veh C5orf56 (11738089_at) / RFU CYB561 (11721691_x_at) / Fold change /veh CYB561 (11721691_x_at) / RFU ANKRD19P (11752326_a_at) / Fold change /veh ANKRD19P (11752326_a_at) / RFU OR2T12 /// OR2T33 /// OR2T8 (11738714_s_at) / Fold change /veh OR2T12 /// OR2T33 /// OR2T8 (11738714_s_at) / RFU VCAN (11748164_a_at) / Fold change /veh VCAN (11748164_a_at) / RFU JSRP1 (11732532_at) / Fold change /veh JSRP1 (11732532_at) / RFU KRTAP10-11 (11738290_x_at) / Fold change /veh KRTAP10-11 (11738290_x_at) / RFU MYO3A (11730013_a_at) / Fold change /veh MYO3A (11730013_a_at) / RFU EBF3 (11725865_a_at) / Fold change /veh EBF3 (11725865_a_at) / RFU CAMK2N1 (11719241_x_at) / Fold change /veh CAMK2N1 (11719241_x_at) / RFU C5orf56 (11738088_a_at) / Fold change /veh C5orf56 (11738088_a_at) / RFU OLFML3 (11715873_a_at) / Fold change /veh OLFML3 (11715873_a_at) / RFU LOC100653217 /// NTM (11731650_a_at) / Fold change /veh LOC100653217 /// NTM (11731650_a_at) / RFU MAPK11 (11762145_a_at) / Fold change /veh MAPK11 (11762145_a_at) / RFU FIZ1 (11724087_x_at) / Fold change /veh FIZ1 (11724087_x_at) / RFU OASL (11726364_x_at) / Fold change /veh OASL (11726364_x_at) / RFU SOX15 (11748057_x_at) / Fold change /veh SOX15 (11748057_x_at) / RFU CD79A (11719716_a_at) / Fold change /veh CD79A (11719716_a_at) / RFU HIST1H1D (11736915_at) / Fold change /veh HIST1H1D (11736915_at) / RFU CASKIN2 (11723855_a_at) / Fold change /veh CASKIN2 (11723855_a_at) / RFU LOC730098 (11760151_x_at) / Fold change /veh LOC730098 (11760151_x_at) / RFU OR4N2 (11742367_at) / Fold change /veh OR4N2 (11742367_at) / RFU PRRT2 (11749266_a_at) / Fold change /veh PRRT2 (11749266_a_at) / RFU SNX32 (11753110_a_at) / Fold change /veh SNX32 (11753110_a_at) / RFU CDHR5 (11726645_a_at) / Fold change /veh CDHR5 (11726645_a_at) / RFU RCAN1 (11760418_a_at) / Fold change /veh RCAN1 (11760418_a_at) / RFU FAM167A (11723789_a_at) / Fold change /veh FAM167A (11723789_a_at) / RFU FAM26E (11764081_at) / Fold change /veh FAM26E (11764081_at) / RFU ISYNA1 (11749810_s_at) / Fold change /veh ISYNA1 (11749810_s_at) / RFU ACY1 (11761880_at) / Fold change /veh ACY1 (11761880_at) / RFU 11764098_at / Fold change /veh 11764098_at / RFU SAMD14 (11745864_x_at) / Fold change /veh SAMD14 (11745864_x_at) / RFU NPB (11741838_a_at) / Fold change /veh NPB (11741838_a_at) / RFU TMPRSS6 (11731388_a_at) / Fold change /veh TMPRSS6 (11731388_a_at) / RFU KRTAP10-2 (11738614_at) / Fold change /veh KRTAP10-2 (11738614_at) / RFU ARHGAP8 /// PRR5-ARHGAP8 (11727945_x_at) / Fold change /veh ARHGAP8 /// PRR5-ARHGAP8 (11727945_x_at) / RFU KRTAP5-7 /// NADSYN1 (11734609_at) / Fold change /veh KRTAP5-7 /// NADSYN1 (11734609_at) / RFU RASL12 (11751679_a_at) / Fold change /veh RASL12 (11751679_a_at) / RFU CDKN2B (11736163_a_at) / Fold change /veh CDKN2B (11736163_a_at) / RFU PRF1 (11729649_at) / Fold change /veh PRF1 (11729649_at) / RFU, ZNF638 /// ZNF638-IT1 / Fold change vs veh, ZNF638 /// ZNF638-IT1 / RFU, PANK3 / Fold change vs veh, PANK3 / RFU, SH3YL1 / Fold change vs veh, SH3YL1 / RFU, ZEB2 / Fold change vs veh, ZEB2 / RFU, NRIP1 / Fold change vs veh, NRIP1 / RFU, PTTG1IP / Fold change vs veh, PTTG1IP / RFU, CAPN2 / Fold change vs veh, CAPN2 / RFU, MED14 / Fold change vs veh, MED14 / RFU, SNORA58 / Fold change vs veh, SNORA58 / RFU, C1orf63 / Fold change vs veh, C1orf63 / RFU, LRRFIP1 / Fold change vs veh, LRRFIP1 / RFU, NDUFAF7 / Fold change vs veh, NDUFAF7 / RFU, SLC12A2 / Fold change vs veh, SLC12A2 / RFU, IBTK / Fold change vs veh, IBTK / RFU, ESF1 / Fold change vs veh, ESF1 / Fold change vs veh, TMEM50B / RFU, TAOK1 / Fold change vs veh, TAOK1 / RFU, ACBD3 / Fold change vs veh, ACBD3 / RFU, TMA16 / Fold change vs veh, TMA16 / RFU, RWDD3 / Fold change vs veh, RWDD3 / RFU, BCAT1 / Fold change vs veh, BCAT1 / RFU, EDEM3 / Fold change vs veh, EDEM3 / RFU, TMEM33 / Fold change vs veh, TMEM33 / RFU, WDR75 / Fold change vs veh, WDR75 / RFU, AHCTF1 / Fold change vs veh, AHCTF1 / RFU, TFRC / Fold change vs veh, TFRC / RFU, ZDHHC17 / Fold change vs veh, ZDHHC17 / RFU, NOM1 / Fold change vs veh, NOM1 / RFU, ARL8B / Fold change vs veh, ARL8B / RFU, ZBTB11 / Fold change vs veh, ZBTB11 / RFU, TAMM41 / Fold change vs veh, TAMM41 / RFU, KIAA1704 /// LOC100996395 / Fold change vs veh, KIAA1704 /// LOC100996395 / RFU, ING1 / Fold change vs veh, ING1 / RFU, TRMT61B / Fold change vs veh, TRMT61B / RFU, FUBP3 / Fold change vs veh, FUBP3 / RFU, TP53 / Fold change vs veh, TP53 / RFU, TNKS2 / Fold change vs veh, TNKS2 / RFU, ZFP14 / Fold change vs veh, ZFP14 / RFU, ACTR2 / Fold change vs veh, ACTR2 / RFU, PPP3R1 / Fold change vs veh, PPP3R1 / RFU, PIK3R1 / Fold change vs veh, PIK3R1 / RFU, HNRNPA1 / Fold change vs veh, HNRNPA1 / RFU, RNF170 / Fold change vs veh, RNF170 / RFU, ZNF28 / Fold change vs veh, ZNF28 / RFU, RNGTT / Fold change vs veh, RNGTT / RFU, OGT / Fold change vs veh, OGT / RFU, BRD1 / Fold change vs veh, BRD1 / RFU, MARS / Fold change vs veh, MARS / RFU, ZNF655 / Fold change vs veh, ZNF655 / RFU, FAHD1 / Fold change vs veh, FAHD1 / RFU, BDP1 / Fold change vs veh, BDP1 / RFU, LRRCC1 / Fold change vs veh, LRRCC1 / RFU, ARID1A / Fold change vs veh, ARID1A / RFU, ZNF146 / Fold change vs veh, ZNF146 / RFU, ZNF330 / Fold change vs veh, ZNF330 / RFU, GPN3 / Fold change vs veh, GPN3 / RFU, C9orf123 / Fold change vs veh, C9orf123 / RFU, N4BP2L2 / Fold change vs veh, N4BP2L2 / RFU, ARFIP1 / Fold change vs veh, ARFIP1 / RFU, FAM179B / Fold change vs veh, FAM179B / RFU, BCL10 / Fold change vs veh, BCL10 / RFU, UHRF1BP1L / Fold change vs veh, UHRF1BP1L / RFU, BET1 / Fold change vs veh, BET1 / RFU, CNOT2 / Fold change vs veh, CNOT2 / RFU, ZNF268 / Fold change vs veh, ZNF268 / Fold change vs veh, ZNF507 / RFU, DGCR2 / Fold change vs veh, DGCR2 / RFU, WDSUB1 / Fold change vs veh, WDSUB1 / Fold change vs veh, HSP90B1 /// MIR3652 / RFU, ADSS / Fold change vs veh, ADSS / RFU, GK / Fold change vs veh, GK / RFU, ZNF148 / Fold change vs veh, ZNF148 / RFU, TAF9 / Fold change vs veh, TAF9 / RFU, SLC1A5 / Fold change vs veh, SLC1A5 / RFU, SLMO2 / Fold change vs veh, SLMO2 / RFU, ABCC4 / Fold change vs veh, ABCC4 / RFU, LOC101060439 /// RAP1B / Fold change vs veh, LOC101060439 /// RAP1B / RFU, RFX7 / Fold change vs veh, RFX7 / RFU, GTPBP10 / Fold change vs veh, GTPBP10 / RFU, CNEP1R1 / Fold change vs veh, CNEP1R1 / RFU, BIVM-ERCC5 /// ERCC5 / Fold change vs veh, BIVM-ERCC5 /// ERCC5 / RFU, ILF3 / Fold change vs veh, ILF3 / RFU 11762660_at / Fold change /veh 11762660_at / RFU VCAN (11757783_s_at) / Fold change /veh VCAN (11757783_s_at) / RFU DDX43 (11728927_at) / Fold change /veh DDX43 (11728927_at) / RFU KRT8 (11758188_x_at) / Fold change /veh KRT8 (11758188_x_at) / RFU NKD1 (11759106_at) / Fold change /veh NKD1 (11759106_at) / RFU SRD5A1 (11742802_a_at) / Fold change /veh SRD5A1 (11742802_a_at) / RFU TPSAB1 /// TPSB2 (11721975_s_at) / Fold change /veh TPSAB1 /// TPSB2 (11721975_s_at) / RFU GSTM3 (11746129_a_at) / Fold change /veh GSTM3 (11746129_a_at) / RFU IL23R (11737362_x_at) / Fold change /veh IL23R (11737362_x_at) / RFU TMEM51 (11727254_a_at) / Fold change /veh TMEM51 (11727254_a_at) / RFU PIWIL2 (11732686_x_at) / Fold change /veh PIWIL2 (11732686_x_at) / RFU ORM1 (11744905_x_at) / Fold change /veh ORM1 (11744905_x_at) / RFU CCDC152 (11743942_at) / Fold change /veh CCDC152 (11743942_at) / RFU ECM1 (11717891_a_at) / Fold change /veh ECM1 (11717891_a_at) / RFU IL23R (11748794_a_at) / Fold change /veh IL23R (11748794_a_at) / RFU TNFAIP8L3 (11732012_x_at) / Fold change /veh TNFAIP8L3 (11732012_x_at) / RFU MBOAT4 (11741988_at) / Fold change /veh MBOAT4 (11741988_at) / RFU 11764193_at / Fold change /veh 11764193_at / RFU TMEM53 (11763286_at) / Fold change /veh TMEM53 (11763286_at) / RFU MAGEB2 (11727129_at) / Fold change /veh MAGEB2 (11727129_at) / RFU TMEM200A (11744735_a_at) / Fold change /veh TMEM200A (11744735_a_at) / RFU CCDC152 (11751479_a_at) / Fold change /veh CCDC152 (11751479_a_at) / RFU FAM211A (11726209_a_at) / Fold change /veh FAM211A (11726209_a_at) / RFU RGS16 (11746705_a_at) / Fold change /veh RGS16 (11746705_a_at) / RFU VCAN (11755009_s_at) / Fold change /veh VCAN (11755009_s_at) / RFU RHOB (11743442_s_at) / Fold change /veh RHOB (11743442_s_at) / RFU RGS16 (11720943_a_at) / Fold change /veh RGS16 (11720943_a_at) / RFU RGS16 (11720944_at) / Fold change /veh RGS16 (11720944_at) / RFU, VPS4B / Fold change vs veh, VPS4B / RFU, CREB1 / Fold change vs veh, CREB1 / RFU, DNAJC13 / Fold change vs veh, DNAJC13 / RFU, GNAQ / Fold change vs veh, GNAQ / RFU, CDK5R1 / Fold change vs veh, CDK5R1 / RFU, ZRANB3 / Fold change vs veh, ZRANB3 / RFU, CUL4A / Fold change vs veh, CUL4A / RFU, CCNY / Fold change vs veh, CCNY / RFU, UFL1 / Fold change vs veh, UFL1 / RFU, COG3 / Fold change vs veh, COG3 / RFU, DIAPH2 / Fold change vs veh, DIAPH2 / RFU, SKA2 / Fold change vs veh, SKA2 / RFU, AFF3 / Fold change vs veh, AFF3 / RFU, LMF1 / Fold change vs veh, LMF1 / RFU, IPO11 / Fold change vs veh, IPO11 / RFU, DFFB / Fold change vs veh, DFFB / RFU, FOXP1 / Fold change vs veh, FOXP1 / RFU, CARD8 / Fold change vs veh, CARD8 / RFU, STRN3 / Fold change vs veh, STRN3 / RFU, ADK / Fold change vs veh, ADK / RFU, RASSF2 / Fold change vs veh, RASSF2 / RFU, WIPF1 / Fold change vs veh, WIPF1 / RFU, LARP1B / Fold change vs veh, LARP1B / RFU, RASA1 / Fold change vs veh, RASA1 / RFU, RB1 / Fold change vs veh, RB1 / RFU, PPFIA1 / Fold change vs veh, PPFIA1 / RFU, MAT2A / Fold change vs veh, MAT2A / RFU, CCT5 / Fold change vs veh, CCT5 / RFU, WDR92 / Fold change vs veh, WDR92 / RFU, CUX1 / Fold change vs veh, CUX1 / RFU, TTC7A / Fold change vs veh, TTC7A / RFU, TMEM135 / Fold change vs veh, TMEM135 / RFU, DEPTOR / Fold change vs veh, DEPTOR / RFU, CPM / Fold change vs veh, CPM / RFU, DNAJB6 / Fold change vs veh, DNAJB6 / RFU, CACNA2D3 / Fold change vs veh, CACNA2D3 / RFU, DTX4 / Fold change vs veh, DTX4 / RFU, TFCP2 / Fold change vs veh, TFCP2 / RFU, GMCL1 /// GMCL1P1 / Fold change vs veh, GMCL1 /// GMCL1P1 / RFU, AEBP2 / Fold change vs veh, AEBP2 / RFU, SNHG1 /// SNORD22 /// SNORD25 /// SNORD26 /// SNORD27 /// SNORD28 /// SNORD29 /// SNORD31 / Fold change vs veh, SNHG1 /// SNORD22 /// SNORD25 /// SNORD26 /// SNORD27 /// SNORD28 /// SNORD29 /// SNORD31 / Fold change (Aza/veh), C12orf56 (ProbeSet 11735607_a_at) / Fold change (ACY-1035/veh), C12orf56 (ProbeSet 11735607_a_at) / Fold change (Aza/veh), FGFR1OP (ProbeSet 11751329_s_at) / Fold change (ACY-1035/veh), FGFR1OP (ProbeSet 11751329_s_at) / Fold change (Aza/veh), VPS36 (ProbeSet 11739960_a_at) / Fold change (ACY-1035/veh), VPS36 (ProbeSet 11739960_a_at) / RFU SYPL1 (11715823_x_at) / Fold change /veh SYPL1 (11715823_x_at) / RFU IGFBP7 (11715501_s_at) / Fold change /veh IGFBP7 (11715501_s_at) / RFU REEP3 (11722064_at) / Fold change /veh REEP3 (11722064_at) / RFU IGLL1 (11728026_x_at) / Fold change /veh IGLL1 (11728026_x_at): dose or concentration left out as unconfirmed
Settings: ProbeSet 11728314_at; LIST B

Nc1ccc(-c2cccs2)cc1NC(=O)c1ccc2c(c1)cc(C1CC1)n2CCN1CCOCC1 [ACY-1035]
RFU, ZNF148: 188.07 RFU
